Usually inhibition stands for the change of the read-out against control, counted positive when it falls.

Data on 4 molecules can be found in patent US5723485A, “1,2-Diarylindole derivatives, processes for their preparation and their uses in therapeutics” (Laboratories UPSA, priority 1996, dated 1998).

Molecules are shown by their SMILES.

For assay [1], the target named is T1, COX-2 (purified enzyme from ewe placenta) (Ovis aries, UniProt P79208).
T1 construct: purified enzyme from ewe placenta; from tissue; host or cells: ewe placenta
T1 sequence (P79208 17-603): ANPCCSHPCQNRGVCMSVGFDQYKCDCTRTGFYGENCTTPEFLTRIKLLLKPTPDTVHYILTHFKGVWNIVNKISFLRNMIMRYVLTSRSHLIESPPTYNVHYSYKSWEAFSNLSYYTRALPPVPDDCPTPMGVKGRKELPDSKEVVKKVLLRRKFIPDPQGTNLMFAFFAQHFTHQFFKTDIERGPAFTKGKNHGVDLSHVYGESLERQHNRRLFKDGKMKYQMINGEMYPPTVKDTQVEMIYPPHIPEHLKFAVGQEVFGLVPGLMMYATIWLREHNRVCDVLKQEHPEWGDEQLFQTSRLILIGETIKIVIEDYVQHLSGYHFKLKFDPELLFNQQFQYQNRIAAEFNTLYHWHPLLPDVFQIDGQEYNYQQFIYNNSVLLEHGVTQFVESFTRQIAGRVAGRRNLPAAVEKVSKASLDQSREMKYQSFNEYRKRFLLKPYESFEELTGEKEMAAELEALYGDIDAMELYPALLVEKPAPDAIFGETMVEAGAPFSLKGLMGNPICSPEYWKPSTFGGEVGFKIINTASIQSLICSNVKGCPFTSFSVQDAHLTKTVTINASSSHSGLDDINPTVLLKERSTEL
Put plainly: Inhibition of COX-2 enzymatic activity (PGE2 determined by EIA). In kind it is biochemical. The following applies: arachidonic acid 4 μM, mean ± standard deviation, 4 determinations; for inhibition at 10 µM: 10^-5 M. Here is the method:
(§1) The molecule studied is preincubated for 10 minutes at 25° C. with 2 U of COX-1 (purified enzyme from ram seminal vesicles) or 1 U of COX-2 (purified enzyme from ewe placenta). Arachidonic acid (6 μM for COX-1, 4 μM for COX-2) is added to the reaction medium and incubation is carried out for 5 minutes at 25° C. When incubation has ended, the enzymatic reaction is stopped by the addition of 1N HCl and the PGE2 produced is determined by EIA. The results are expressed as the percentage inhibition of the COX-1 and COX-2 enzymatic activities and correspond to mean (±) standard deviations from the average of 4 determinations.

Assay [2] concerns the target T2, COX-1 (purified enzyme from ram seminal vesicles) (Ovis aries, UniProt P05979).
T2 construct: purified enzyme from ram seminal vesicles; from tissue; host or cells: ram seminal vesicles
T2 sequence (P05979 25-600): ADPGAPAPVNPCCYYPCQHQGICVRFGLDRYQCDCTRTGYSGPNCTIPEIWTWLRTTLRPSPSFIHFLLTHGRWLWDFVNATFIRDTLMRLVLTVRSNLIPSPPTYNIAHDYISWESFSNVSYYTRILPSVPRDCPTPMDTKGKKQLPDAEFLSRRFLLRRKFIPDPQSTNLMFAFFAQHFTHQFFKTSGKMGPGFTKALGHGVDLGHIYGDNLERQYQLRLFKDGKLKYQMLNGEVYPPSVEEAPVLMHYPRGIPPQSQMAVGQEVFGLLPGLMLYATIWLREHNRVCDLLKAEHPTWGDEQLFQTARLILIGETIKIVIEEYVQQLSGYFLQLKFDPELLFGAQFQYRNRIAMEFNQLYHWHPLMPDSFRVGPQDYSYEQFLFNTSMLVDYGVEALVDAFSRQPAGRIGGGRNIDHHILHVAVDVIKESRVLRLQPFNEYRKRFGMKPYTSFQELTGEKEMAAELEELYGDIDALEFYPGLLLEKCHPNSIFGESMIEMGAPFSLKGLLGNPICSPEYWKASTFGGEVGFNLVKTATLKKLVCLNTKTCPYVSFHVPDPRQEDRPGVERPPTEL
Kind of assay: Inhibition of COX-1 enzymatic activity (PGE2 determined by EIA). In kind it is biochemical. The following applies: arachidonic acid 6 μM, mean ± standard deviation, 4 determinations; for inhibition at 10 µM: 10^-5 M; for inhibition at 0.1 µM: 10^-7 M. On the procedure: as §1

As for `CS(=O)(=O)c1ccc(-c2cc3ccccc3n2-c2ccccc2)cc1` [Example 18, 1-Phenyl-2-[4-(methylsulfonyl)phenyl]indole], the inhibition at 10 µM came out at 88 ± 2% in assay [1] and 23 ± 6% in assay [2]. In assay [2], this molecule displayed an inhibition at 0.1 µM of 2 ± 2%.

In assay [1], `CS(=O)(=O)c1ccc(-c2cc3ccccc3n2-c2ccc(Cl)cc2)cc1` [Example 19, 1-(4-Chlorophenyl)-2-[4-(methylsulfonyl)phenyl]indole] gave an inhibition at 10 µM of 95%.

`CS(=O)(=O)c1ccc(-c2cc3ccccc3n2-c2ccc(F)cc2)cc1` [Example 16, 1-(4-Fluorophenyl)-2-[4-(methylsulfonyl)phenyl]indole]: the inhibition at 10 µM in assay [1] was determined as 83 ± 2%; in assay [2], 36 ± 14%. For the same molecule, the inhibition at 0.1 µM was determined as 29 ± 2% in assay [1] (10^-7 M) and 4 ± 4% in assay [2].

Turning to `Cc1ccc(-n2c(-c3ccc(S(C)(=O)=O)cc3)cc3ccccc32)cc1` [Example 17, 1-(4-Methylphenyl)-2-[4-(methylsulfonyl)phenyl]indole], the inhibition at 10 µM in assay [1] is 89 ± 2%; in assay [2], 29 ± 5%. For the same molecule, 0.1 µM produced 2 ± 2% inhibition in assay [2].
